Results taken from US11725036B2, “Modified lipidated relaxin B chain peptides and their therapeutic use” (Sanofi, priority 2018, dated 2023).
In brackets after ≈: the same amount, converted by molar mass. Where two headings read alike, the source gives them in different places. Starred links: 1 amine or outer side, 2 acyl side, 3 side chain; linkers in the order of their positions; H or OH if unused. Non-standard residues stand in square brackets, D forms with d. Residues, ends and D or L forms follow the SMILES beside them. Groups on a side chain read outwards from the residue. *: point of attachment. X1 = CCCCCCCCCCCCCCCC(=O)N[C@@H](CCC(=O)N[C@@H](CCC(=O)N[C@@H](CCC(=O)NCCCOCCOCCOCCCNC(=O)CCC(=O)NCCCOCCOCCOCCCNC(=O)CCC(=O)NCCCOCCOCCOCCCN*)C(=O)O)C(=O)O)C(=O)O; X2 = CCCCCCCCCCCCCCCC(=O)N[C@@H](CCC(=O)N[C@@H](CCC(=O)N[C@@H](CCC(=O)NCCCOCCOCCOCCCNC(=O)CCC(=O)NCCCOCCOCCOCCCN*)C(=O)O)C(=O)O)C(=O)O; γGlu = O=C(O)[C@H](CCC(=O)[*:2])N[*:1]; Palmitoyl = CCCCCCCCCCCCCCCC(=O)*; Suc = O=C(CCC(=O)[*:2])[*:1]; αMeK = C[C@](N)(CCCCN)C(=O)O; AEEA = NCCOCCOCC(=O)O; Aib = CC(C)(N)C(=O)O

Experiments:
[1] = target: T1, RXFP1 (Homo sapiens, UniProt Q9HBX9); assay: OVCAR5 cAMP assay (HTRF); format: cell-based; settings: for EC50: OVCAR 5 cells expressing endogenous RXFP1, cAMP readout; for Emax: OVCAR 5 cells, maximal cAMP relative to H2-relaxin
T1 construct: OVCAR5 cells expressing endogenous RXFP1; endogenous in cells; host or cells: OVCAR5
T1 sequence (Q9HBX9 1-757): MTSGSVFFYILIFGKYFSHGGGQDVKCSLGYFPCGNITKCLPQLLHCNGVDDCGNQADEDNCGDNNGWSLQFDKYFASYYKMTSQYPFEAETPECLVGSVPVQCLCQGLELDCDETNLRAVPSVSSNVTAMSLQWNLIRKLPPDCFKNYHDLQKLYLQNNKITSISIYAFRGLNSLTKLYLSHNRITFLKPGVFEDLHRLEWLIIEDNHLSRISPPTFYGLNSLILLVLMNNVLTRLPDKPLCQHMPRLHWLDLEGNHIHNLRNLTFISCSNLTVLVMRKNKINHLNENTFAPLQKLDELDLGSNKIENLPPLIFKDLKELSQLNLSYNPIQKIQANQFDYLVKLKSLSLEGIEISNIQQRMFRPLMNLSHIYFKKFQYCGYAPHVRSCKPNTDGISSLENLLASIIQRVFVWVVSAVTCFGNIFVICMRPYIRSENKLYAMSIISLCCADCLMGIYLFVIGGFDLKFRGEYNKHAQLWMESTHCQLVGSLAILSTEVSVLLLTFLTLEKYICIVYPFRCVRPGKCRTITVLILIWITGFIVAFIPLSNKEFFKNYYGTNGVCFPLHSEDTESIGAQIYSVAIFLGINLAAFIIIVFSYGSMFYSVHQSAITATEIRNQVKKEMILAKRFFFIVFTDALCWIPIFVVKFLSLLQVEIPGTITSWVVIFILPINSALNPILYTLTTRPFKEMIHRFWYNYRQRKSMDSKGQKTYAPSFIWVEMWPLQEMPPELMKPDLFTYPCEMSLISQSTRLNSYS
In short: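 Peptide agonism measured as intracellular cAMP (HTRF) after 30 min at 37° C in serum-free medium, following 40 min 1 mM IBMX preincubation of OVCAR5 cells. Nonlinear regression gave EC50; Emax % = 100 × compound maximal cAMP / H2-relaxin maximal cAMP.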

[2] = Solubility testing in buffer; format: physicochemical; settings: target solubility 10.0 mg/ml
Description: Prior to the testing of solubility of a peptide batch, its purity (HPLC-UV) was determined.
Acetate Buffer 50 mM pH4.5: 0.75 g C2H3C02Na,3H2O (Sigma S7545)+0.35 ml CH3CO2H 100% solution dissolved in Millipore water, adjusted to pH with diluted (1:1) CH3CO2H and diluted to 250 ml with Millipore water.
In a 4 ml Ependorph vial, an accurately weighed sample of compound was diluted in study media to obtain target concentration of 2, 6 or 10 mg/ml of pure compound. The sample vials were shacked (rock 'roll shaker) for ˜19 h. 300 μL aliquots were filtered through a Millipore “Solvinert” plate (0.45 μm-PTFE hydrophilic).
pH was measured with a micro electrode
Waters Acquity UPLC System with DAD detector
Column: Waters Peptide Column CSH C18 (130 Å; 1.7 μm; 50*2.1 mm)
Column temperature: 60° C.
Full loop (about 5 μL)—overfill factor 5
Weak et Strong wash: H2O/ACN (75/25; V/V); Seal wash: H2O/IsOH (95/5; V/V). Mobile phase:
Solvent A: 0.05% TFA in H2O; Solvent B: 0.035% TFA in CH3CN
Gradient: from 0 to 12 min B=2% to 60%, from 12 to 14 min B=60% to 100%. Column washing 100% B 1 min, column equilibration 2% B 2.5 min.
UV detector: wavelength: 220 nm.

[3] = acetate buffer 50 mM pH 4.5, read-out: Solubility Acetate buffer pH 4.5
[4] = phosphate buffer 50 mM pH 7.4, read-out: Solubility phosphate buffer pH 7.4

EC50 [1] | Emax [1] | solubility [2, 3] | solubility [2, 4] | Structure (SMILES)
4.6 nM | 91% | 9220 µg/mL (≈ 2260 µM) | 6810 µg/mL (≈ 1670 µM) | CCCCCCCCCCCCCCCC(=O)N[C@@H](CCC(=O)N[C@@H](CCC(=O)N[C@@H](CCC(=O)NCCCOCCOCCOCCCNC(=O)CCC(=O)NCCCOCCOCCOCCCNC(=O)CCC(=O)NCCCC[C@H](NC(=O)CNC(=O)[C@H](CCC(=O)O)NC(=O)C(C)(C)NC(=O)C(C)(C)NC(=O)[C@@H](NC(=O)[C@H](CCCCNC(C)=O)NC(=O)[C@H](C)NC(=O)[C@H](CCCNC(=N)N)NC(=O)[C@@H](NC(=O)[C@H](CCCCN)NC(=O)[C@H](CCC(=O)O)NC(=O)[C@H](CCCNC(=N)N)NC(=O)CNC(=O)[C@H](CCC(=O)O)NC(=O)[C@H](CC(C)C)NC(C)=O)C(C)C)[C@@H](C)CC)C(=O)N[C@@H](CO)C(=O)N[C@H](C(=O)N[C@@H](Cc1c[nH]c2ccccc12)C(=O)N[C@@H](CO)C(=O)N[C@H](CCCCN)C(=O)N[C@@H](CCCNC(=N)N)C(=O)N[C@@H](C)C(=O)N[C@@H](CCCCNC(C)=O)C(N)=O)[C@@H](C)O)C(=O)O)C(=O)O)C(=O)O [compound 17] (Ac-LEGREKVRAK(Ac)I[Aib][Aib]EGK([Suc-X2])STWS[dK]RAK(Ac)-NH2)
9.1 nM | 85% | 6240 µg/mL (≈ 1530 µM) | 6410 µg/mL (≈ 1570 µM) | CCCCCCCCCCCCCCCC(=O)N[C@@H](CCC(=O)N[C@@H](CCC(=O)N[C@@H](CCC(=O)NCCOCCOCC(=O)NCCOCCOCC(=O)NCCOCCOCC(=O)NCCOCCOCC(=O)NCCCC[C@H](NC(=O)CNC(=O)[C@H](CCC(=O)O)NC(=O)C(C)(C)NC(=O)C(C)(C)NC(=O)[C@@H](NC(=O)[C@H](CCCCNC(C)=O)NC(=O)[C@H](C)NC(=O)[C@H](CCCNC(=N)N)NC(=O)[C@@H](NC(=O)[C@H](CCCCN)NC(=O)[C@H](CCC(=O)O)NC(=O)[C@H](CCCNC(=N)N)NC(=O)CNC(=O)[C@H](CCC(=O)O)NC(=O)[C@H](CC(C)C)NC(C)=O)C(C)C)[C@@H](C)CC)C(=O)N[C@@H](CO)C(=O)N[C@H](C(=O)N[C@@H](Cc1c[nH]c2ccccc12)C(=O)N[C@@H](CO)C(=O)NC(C)(C)C(=O)N[C@@H](CCCNC(=N)N)C(=O)N[C@@H](CCCCN)C(=O)N[C@@H](CCCCNC(C)=O)C(N)=O)[C@@H](C)O)C(=O)O)C(=O)O)C(=O)O [compound 5] (Ac-LEGREKVRAK(Ac)I[Aib][Aib]EGK([AEEA-AEEA-AEEA-AEEA-γGlu-γGlu-γGlu-Palmitoyl])STWS[Aib]RKK(Ac)-NH2)
11.1 nM | 92% | 550 µg/mL (≈ 127 µM) | 6770 µg/mL (≈ 1560 µM) | CCCCCCCCCCCCCCCC(=O)N[C@@H](CCC(=O)N[C@@H](CCC(=O)N[C@@H](CCC(=O)NCCCOCCOCCOCCCNC(=O)CCC(=O)NCCCOCCOCCOCCCNC(=O)CCC(=O)NCCCOCCOCCOCCCNC(=O)CCC(=O)NCCCC[C@H](NC(=O)CNC(=O)[C@H](CCC(=O)O)NC(=O)C(C)(C)NC(=O)C(C)(C)NC(=O)[C@@H](NC(=O)[C@H](CCCCNC(C)=O)NC(=O)[C@H](C)NC(=O)[C@H](CCCNC(=N)N)NC(=O)[C@@H](NC(=O)[C@H](CC(C)C)NC(=O)[C@H](CCC(=O)O)NC(=O)[C@H](CCCNC(=N)N)NC(=O)CNC(=O)[C@H](CCC(=O)O)NC(=O)[C@H](CC(C)C)NC(C)=O)C(C)C)[C@@H](C)CC)C(=O)N[C@@H](CO)C(=O)N[C@H](C(=O)N[C@@H](Cc1ccccc1)C(=O)N[C@@H](CO)C(=O)N[C@@](C)(CCCCN)C(=O)N[C@@H](CCCNC(=N)N)C(=O)N[C@@H](C)C(=O)N[C@@H](CCCCNC(C)=O)C(N)=O)[C@@H](C)O)C(=O)O)C(=O)O)C(=O)O [compound 23] (Ac-LEGRELVRAK(Ac)I[Aib][Aib]EGK([Suc-X1])STFS[αMeK]RAK(Ac)-NH2)
